Common to all, as to format: functional
The subject of test [1] is Panel renal (Carcinoma cell lines). Kind of test: Compound was tested for 50% lethality in Renal cancer cell lines. As to conditions: Homo sapiens, read-out: Log LC50 (the source's name) (converted).
Test [2] deals with Panel ovarian (Carcinoma cell lines). Kind of test: Compound was tested for 50% lethality in Ovarian cancer cell lines. To be noted: Homo sapiens, read-out: Log LC50 (the source's name) (converted).
Test [3] relates to Panel melanoma (Carcinoma cell lines). Nature of the test: Compound was tested for 50% lethality in Melanoma cancer cell lines. To be noted: Homo sapiens, read-out: Log LC50 (the source's name) (converted).
Test [4] has as its system Panel colon (Carcinoma cell lines). Kind of test: Compound was tested for 50% lethality in Colon cancer cell lines. To be noted: Homo sapiens, read-out: Log LC50 (the source's name) (converted).
For the next test, the system named is NSCLC. Kind of test: Compound was tested for 50% lethality in Non-small-cell lung cancer cell lines. As to conditions: Homo sapiens, read-out: Log LC50 (the source's name) (converted).
Test [5] deals with Panel breast (Carcinoma cell lines). Kind of test: Compound was tested for 50% lethality in Breast cancer cell lines. To be noted: Homo sapiens, read-out: Log LC50 (the source's name) (converted).
The next test concerns leukaemia cell line. Kind of test: Compound was tested for 50% lethality in leukemia cancer cell lines. To be noted: Homo sapiens, read-out: Log LC50 (the source's name) (converted).
In test [6] the test system is Panel prostate (Carcinoma cell lines). Nature of the test: Compound was tested for 50% lethality in Prostate cancer cell lines. To be noted: Homo sapiens, read-out: Log LC50 (converted).
Test [7] has as its system Panel CNS (Carcinoma cell lines). Kind of test: Compound was tested for 50% lethality in CNS cancer cell lines. As to conditions: Homo sapiens, read-out: Log LC50 (the source's name) (converted).

Consider `COc1cc2c(cc1OCCCN1CCOCC1)N=C[C@@H]1CCCN1C2=O`, for which the CC50 is 97.7 µM in test [1]; more than 100 µM in test [2]; 87.1 µM in test [3]; 66.1 µM in [4]; 95.5 µM with NSCLC; 97.7 µM in test [5]. Also, the CC50 in the test with leukaemia cell line was more than 100 µM; in [6], more than 100 µM; in [7], 95.5 µM.

Consider `COc1cc2c(cc1OCCCN1CCN(C)CC1)N=C[C@@H]1CCCN1C2=O`, for which the CC50 is 56.2 µM in test [1]; 61.7 µM in test [2]; 30.9 µM in test [3]; 55 µM in [4]; 67.6 µM with NSCLC; 64.6 µM in test [5]. The CC50 in the test on leukaemia cell line is 52.5 µM; in test [6] it was more than 100 µM; in test [7], 64.6 µM.

For `CCN(CC)CCCOc1cc2c(cc1OC)C(=O)N1CCC[C@H]1C=N2`, the CC50 was more than 100 µM in [1]; more than 100 µM in test [2]; 93.3 µM in test [3]; 87.1 µM in test [4]; more than 100 µM with NSCLC; more than 100 µM in [5]. Further, the CC50 (in the test with leukaemia cell line; in test [6]; in test [7]) was more than 100 µM each time.

Source of the values: ChEMBL document CHEMBL1135179, “Synthesis of C-8 alkylamino substituted pyrrolo[2,1-c][1,4]benzodiazepines as potential anti-cancer agents” (2002).
